The record followed here is patent EP1288203A1, “Cyclic nitrones and pharmaceutical compositions containing them” (Aventis Pharmaceuticals Inc., priority 1995, dated 1997).

One data set concerns cerebellar granule cells. The experiment in a line: Protection of cerebellar granule cells against Fe2+-induced oxidative damage. The format is cell-based, rats. Particulars: Rattus norvegicus, 100 µM ferrous chloride. The procedure: The cyclic nitrones were tested for their ability to protect primary cultures of cerebellar granule cells against oxidative injury induced by treatment with Fe^2+. Cerebellar granule cell cultures were prepared from 8 day old rats as previously described. Levi, G., Aloisi, F., Ciotti, M.T., Thangnipon, W., Kingsbury, A., and Balazs, R. (1989) In: A Dissection and Tissue Culture Manual of the Nervous System (Shahar, A., de Vellis, J., Vernadakis, A., and Haber, B., eds.) Alan R. Liss, Inc. New York, NY, pp. 211-214. Briefly, 8-10 cerebella were removed and placed in a Crebs-Ringer bicarbonate medium supplemented with BSA and MgSO4. Cerebella were finely chopped and digested with a trypsin/Krebs-Ringer solution. Cells were then dispersed by trituration in Krebs-Ringer containing DNase, MgSO4 and trypsin inhibitor followed by plating at a density of 1x10^6 cells/well in poly-1-lysine coated plate in MEM/10% fetal bovine serum/KCl/glutamine/gentamicin. Media was replaced at 24 hours and cytosine arabinoside added. Experiments were conducted with cells 8-10 days in vitro.
For oxidation studies the media was removed and replaced with Na^+ free Locke's solution (154.6 mM N-methyl-D-glucamine, 5.6 mM KCl, 2.3 mM CaCl2, 1 mM MgCl2, 3.6 mM NaHCO3, and 5 mM HEPES, pH 7.3) with the omission of glucose. The nitrones were added in either Locke's solution or in 20% β-cyclodextrins and allowed to incorporate into the cells for 30 min. At this time 20 µl of a 5 mM stock solution of ferrous chloride was added for a final concentration of 100 µM. After 45 min the media was removed and added to 1.5 ml of TBA/TCA (2:1) with 25 µl of 2% BHT and TBARS determined as described above. The absorbance of the control cells (no iron) was subtracted from the iron treated cells and this value taken as the denominator to determine the concentration of nitrone required to inhibit oxidation by 50%.
Fresh MEM media was added to the cells along with 100 µl of MTT. After 4 hrs, 1 ml of cold isopropanol/0.04 N HCl was added, the cells scraped, mixed well and transferred to 13 x 100 mm glass test tubes. The absorbance resulting from mitochondrial reduction of the MTT (570 nm minus 630 nm) was measured as an assessment of viability. The % cell death was determined by comparison to the absorbance of cells to which no iron was added. The difference between the iron-treated and control cells was taken as 100% and the concentration of nitrone to prevent the loss of MTT reduction capability (expressed in Table II as viability) by 50% was used as the IC50.

Data set [1] is described as follows: Hydroxyl radical trapping (inhibition of the •OH-dependent bleaching of p-NDA). The class given is biochemical. Particulars: IC50 for hydroxyl radical trapping in vitro. The procedure: Cyclic nitrones were evaluated for •OH trapping activity by a variety of tests. The primary assay was dependent upon the ability of the compounds to inhibit the •OH-dependent bleaching of p-NDA. Bors, W., Michel, C., and Saran, M. (1979) J. Biochem. 95, 621-627. The p-NDA was prepared at 1 mM in 50 mM NaCl, pH 7.0. The hydroxyl radical was generated using Fenton chemistry (Fe^2+/H2O2). FeCl2 is dissolved in N2 purged, double distilled H2O to a final concentration of 2.5 mM. H2O2 was prepared from a 30% stock solution (8.8 M) at 1.25 mM in the buffer. Test compounds were solubilized in buffer or ethanol at a concentration of 1 M or 5 M, depending upon solubility.
Assay mixtures in glass cuvettes contained solutions of 0.02 ml of H2O2, 0.02 ml of test compound, 0.10 ml of p-NDA and 50 mM NaCl, pH 7.0 to a final volume of 0.98 ml. The oxidation was initiated by the addition of 0.02 ml of Fe^2+ and the bleaching of p-NDA was monitored as the loss in absorbance at 440 nm for 100 sec. To generate concentration curves, serial dilutions of the test compounds were made such that a constant volume of 0.02 ml was added to the reaction mixture. Ethanol itself is an •OH trap, thus controls contained an equal volume of ethanol for any test compound requiring this vehicle. […]

The nature of data set [2]: Sedation after administration in rats. The conditions noted are these: high doses in rats.
Where [3] appears, read: 0.75 h, 45 min, TBARS in media, read-out: TBARS IC50.
Where [4] appears, read: IC50 for preventing loss of MTT reduction capability, read-out: Viability.

Each structure is given as a SMILES string. Like-named read-outs stand apart in the source and are kept apart here.

As for `CC1(C)Cc2ccc3ccccc3c2C=[N+]1[O-]` [Compound 10, 3,3-Dimethyl-3,4-dihydrobenzo[h]isoquinoline N-oxide], the IC50 in the data set on cerebellar granule cells (setting [3]) amounted to 104 µM; in the data set with cerebellar granule cells (setting [4]), 103 µM.

For the molecule `CC1(C)Cc2sccc2C=[N+]1[O-]` [Compound 18, 6,6-Dimethyl-6,7-dihydrothieno[3,2-c]pyridine N-oxide], the values for the IC50 in the data set with cerebellar granule cells (setting [3]) and in the data set on cerebellar granule cells (setting [4]) were 2600 µM and 880 µM, respectively.

As for `CC1(C)Cc2ccoc2C=[N+]1[O-]` [Compound 23, 5,5-Dimethyl-4,5-dihydrofuro[2,3-c]pyridine N-oxide], the “OH RADICAL TRAPPING” value in data set [1] is listed as “no effect at 20 mM”.

With `CC1(C)Cc2ccccc2C=[N+]1[O-]` [Compound A, 3,4-dihydro-3,3-dimethylisoquinoline N-oxide, reference compound], the values for the IC50 in the data set with cerebellar granule cells (setting [3]) and in the data set with cerebellar granule cells (setting [4]) were 307 µM and 292 µM, respectively. For the same molecule, the sedation entry in data set [2] was “causes sedation”.
